Test [1] in a line: Inhibition of melanoma cell adhesion to type IV collagen;NE=no effect. It is filed as functional, Homo sapiens.
Test [2] in a line: Inhibition of melanoma cell adhesion to type IV collagen. It is filed as functional, Homo sapiens.

Where a SMILES comes first, the peptide text is derived from it. [ ]: non-standard residue; d: D form. pY = N[C@@H](Cc1ccc(OP(=O)(O)O)cc1)C(=O)O

These results are taken from ChEMBL document CHEMBL1130153, “Inhibition of melanoma cell binding to type IV collagen by analogs of cell adhesion regulator” (J Med Chem, 1997).

Consider H-YLIEV-OH, for which the IC50 result in test [1] is “Not Active”.

Molecule `CC[C@H](C)[C@H](NC(=O)[C@H](CCC(=O)O)NC(=O)[C@@H](N)C(C)C)C(=O)N[C@@H](CC(C)C)C(=O)N[C@@H](Cc1ccc(OP(=O)(O)O)cc1)C(=O)O` (H-VEIL[pY]-OH) displayed an IC50 in test [2] of 10 µM. The same measure, in the same setting: the same measure for H-VEILY-OH: 90 µM.

As a reminder, the IC50 is the midpoint of a concentration-inhibition curve. A lower IC50 goes with higher potency.
